Test results taken from ChEMBL document CHEMBL1201862, “PubChem BioAssay data set” (2004).
“And” between values parts separate entries of the source, which are not always exact repeats. Equal values may be shown once.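 Compound exposure: 48 hours, 5 concentrations, 96-well plates. At the GI50, growth is halved.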 The source made the active and inactive calls. No stated cut-off is given here; in the data, active = GI50 up to about 1.1 µM and inactive = higher.

Tests used:
Experiment in all cases: NCI tumour cell line growth inhibition, 48 h
SR = test system: SR
ACHN = test system: ACHN
MOLT-4 = test system: MOLT-4
OVCAR-8 = test system: OVCAR-8
SN12C = test system: SN12C
NCI-H460 = test system: NCI-H460
SK-MEL-5 = test system: SK-MEL-5
UACC-257 = test system: UACC-257
OVCAR-3 = test system: OVCAR-3
HOP-92 = test system: HOP-92
SF-539 = test system: SF-539
RXF 631 = test system: RXF 631
NCI-H522 = test system: NCI-H522
KM-20L2 = test system: KM-20L2
IGROV-1 = test system: IGROV-1
Malme-3M = test system: Malme-3M
SW-620 = test system: SW-620
DMS-273 = test system: DMS-273
RXF 393 = test system: RXF 393
A498 = test system: A498
M14 = test system: M14
EKVX = test system: EKVX
COLO 205 = test system: COLO 205
DLD-1 = test system: DLD-1
CAKI-1 = test system: CAKI-1
HOP-18 = test system: HOP-18
SF-295 = test system: SF-295
LXFL 529 = test system: LXFL 529
K562 = test system: K562
786-0 = test system: 786-0
RPMI-8226 = test system: RPMI-8226
CCRF-CEM = test system: CCRF-CEM
OVCAR-4 = test system: OVCAR-4
HCT-116 = test system: HCT-116
UO-31 = test system: UO-31
A549 = test system: A549
TK-10 = test system: TK-10
SF-268 = test system: SF-268
SK-OV-3 = test system: SK-OV-3
NCI/ADR-RES = test system: NCI/ADR-RES
HL-60 = test system: HL-60
MCF7 = test system: MCF7
HT-29 = test system: HT-29
SNB-75 = test system: SNB-75
SK-MEL-2 = test system: SK-MEL-2
SNB-19 = test system: SNB-19
NCI-H23 = test system: NCI-H23
SK-MEL-28 = test system: SK-MEL-28
UACC-62 = test system: UACC-62
LOX IMVI = test system: LOX IMVI
NCI-H226 = test system: NCI-H226
HCC 2998 = test system: HCC 2998
HOP-62 = test system: HOP-62
SNB-78 = test system: SNB-78

Measured: GI50

CC(C)(C)OC(=O)N1N=NC2C3CC(=O)C(O3)C21 (stereo not drawn)
inactive: SR > 100 µM | ACHN > 100 µM | MOLT-4 > 100 µM | OVCAR-8 86.1 µM | SN12C > 100 µM | NCI-H460 > 100 µM | SK-MEL-5 > 100 µM | UACC-257 > 10 µM | OVCAR-3 > 100 µM | HOP-92 > 100 µM | SF-539 > 100 µM | RXF 631 > 100 µM | NCI-H522 > 100 µM | KM-20L2 > 100 µM | IGROV-1 > 100 µM | Malme-3M > 100 µM | SW-620 > 100 µM | DMS-273 > 100 µM | RXF 393 > 100 µM | A498 > 100 µM | M14 > 100 µM | EKVX > 100 µM | COLO 205 > 10 µM | DLD-1 > 100 µM | CAKI-1 > 100 µM | HOP-18 > 100 µM | SF-295 > 100 µM | LXFL 529 > 100 µM | K562 > 100 µM | 786-0 > 100 µM | RPMI-8226 > 100 µM | CCRF-CEM > 100 µM | OVCAR-4 > 10 µM | HCT-116 > 10 µM | UO-31 > 100 µM | A549 > 100 µM | TK-10 > 100 µM

NC(=O)C#CC(N)=O
inactive: SF-268 60.3 µM and 38.9 µM | SR 14.6 µM | SK-OV-3 > 100 µM and 108 µM | NCI/ADR-RES 7.14 µM | HL-60 2.52 µM and 1.71 µM | ACHN > 100 µM | MCF7 19.3 µM | HT-29 20.8 µM and 41.5 µM | SNB-75 30.1 µM and 42.2 µM | SK-MEL-2 21.9 µM and 13.7 µM | SNB-19 > 100 µM and 121 µM | SF-539 24.4 µM and 19.5 µM | RXF 631 > 100 µM | NCI-H522 21.2 µM and 14.2 µM | IGROV-1 > 100 µM and 67.5 µM | Malme-3M 13.1 µM and 7.53 µM | NCI-H23 58.5 µM and > 91.2 µM | SK-MEL-28 7.08 µM and 14 µM | UACC-62 19.4 µM and 14.6 µM | A498 > 100 µM and 53.1 µM | M14 19.2 µM | LOX IMVI 14.5 µM and 18.3 µM | NCI-H226 > 100 µM and 63 µM | HOP-18 18.2 µM and 28.2 µM | SF-295 13.8 µM and 25.2 µM | HCC 2998 > 100 µM and 58.3 µM | LXFL 529 64.9 µM | K562 2.91 µM and 4.66 µM | 786-0 29.2 µM | RPMI-8226 2.14 µM | CCRF-CEM 3.08 µM and 1.94 µM | HOP-62 > 100 µM and 69.2 µM | SNB-78 54 µM and 47.3 µM | UO-31 24 µM and 28.5 µM | A549 73.3 µM | TK-10 20.8 µM
